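Tested at 5 concentrations; 48 h exposure; 96-well plates; endpoints linearly interpolated, else capped at highest concentration. TGI marks complete inhibition of growth.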 Where a SMILES comes first, the peptide text is derived from it. The star is where a group is joined. Cbz = O=C(OCc1ccccc1)*; NHNH2 = NN*
Tests used:
Experiment in all cases: inhibition of tumour cell growth, NCI panel, 48 h
NCI-H23 lung = system: NCI-H23 lung
SW-620 colon = system: SW-620 colon
UACC-257 melanoma = system: UACC-257 melanoma
MDA-MB-435 = system: MDA-MB-435
OVCAR-5 ovarian = system: OVCAR-5 ovarian
A498 renal = system: A498 renal
HS 578T breast = system: HS 578T breast
U251 CNS = system: U251 CNS
SK-MEL-28 melanoma = system: SK-MEL-28 melanoma
DU-145 prostate = system: DU-145 prostate
SF-268 CNS = system: SF-268 CNS
ACHN renal = system: ACHN renal
SK-MEL-5 melanoma = system: SK-MEL-5 melanoma
NCI-H226 lung = system: NCI-H226 lung
SK-MEL-2 melanoma = system: SK-MEL-2 melanoma
MDA-MB-231 breast = system: MDA-MB-231 breast
HL-60(TB) leukemia = system: HL-60(TB) leukemia
PC-3 prostate = system: PC-3 prostate
HCT-116 colon = system: HCT-116 colon
MOLT-4 leukemia = system: MOLT-4 leukemia
HT29 colon = system: HT29 colon
CCRF-CEM leukemia = system: CCRF-CEM leukemia
NCI-H522 lung = system: NCI-H522 lung
A549 NSCLC = system: A549 NSCLC
MALME-3M melanoma = system: MALME-3M melanoma
KM12 colon = system: KM12 colon
MCF7 breast = system: MCF7 breast
EKVX NSCLC = system: EKVX NSCLC
HOP-92 NSCLC = system: HOP-92 NSCLC
HOP-62 NSCLC = system: HOP-62 NSCLC
UACC-62 melanoma = system: UACC-62 melanoma
RXF 393 renal = system: RXF 393 renal
SNB-19 CNS = system: SNB-19 CNS
TK-10 renal = system: TK-10 renal
786-0 renal = system: 786-0 renal
OVCAR-3 ovarian = system: OVCAR-3 ovarian
BT-549 breast = system: BT-549 breast
OVCAR-8 ovarian = system: OVCAR-8 ovarian
SN12C renal = system: SN12C renal
IGROV1 ovarian = system: IGROV1 ovarian
OVCAR-4 ovarian = system: OVCAR-4 ovarian
T-47D breast = system: T-47D breast
MDA-N = system: MDA-N
K-562 leukemia = system: K-562 leukemia
M14 melanoma = system: M14 melanoma
HCT-15 colon = system: HCT-15 colon
CAKI-1 renal = system: CAKI-1 renal
UO-31 renal = system: UO-31 renal
RPMI-8226 leukemia = system: RPMI-8226 leukemia
SF-539 CNS = system: SF-539 CNS
COLO 205 colon = system: COLO 205 colon
NCI/ADR-RES ovarian = system: NCI/ADR-RES ovarian
LOX IMVI melanoma = system: LOX IMVI melanoma
SF-295 CNS = system: SF-295 CNS
SNB-75 CNS = system: SNB-75 CNS
NCI-H460 lung = system: NCI-H460 lung
SR leukemia = system: SR leukemia
SK-OV-3 ovarian = system: SK-OV-3 ovarian
HCC-2998 colon = system: HCC-2998 colon

CC1S/C(=N/c2nnc(-c3ccccc3)o2)NC1=O (configuration not stated)
TGI (NCI-H23 lung): > 100 µM | TGI (SW-620 colon): > 100 µM | TGI (UACC-257 melanoma): > 100 µM | TGI (MDA-MB-435): > 100 µM | TGI (OVCAR-5 ovarian): > 100 µM | TGI (A498 renal): > 100 µM | TGI (HS 578T breast): > 100 µM | TGI (U251 CNS): > 100 µM | TGI (SK-MEL-28 melanoma): > 100 µM | TGI (DU-145 prostate): > 100 µM | TGI (SF-268 CNS): > 100 µM | TGI (ACHN renal): > 100 µM | TGI (SK-MEL-5 melanoma): > 100 µM | TGI (NCI-H226 lung): > 100 µM | TGI (SK-MEL-2 melanoma): > 100 µM | TGI (MDA-MB-231 breast): > 100 µM | TGI (HL-60(TB) leukemia): > 100 µM | TGI (PC-3 prostate): > 100 µM | TGI (HCT-116 colon): 37.4 µM | TGI (MOLT-4 leukemia): > 100 µM | TGI (HT29 colon): 69.8 µM | TGI (CCRF-CEM leukemia): > 100 µM | TGI (NCI-H522 lung): > 100 µM | TGI (A549 NSCLC): > 100 µM | TGI (MALME-3M melanoma): > 100 µM | TGI (KM12 colon): > 100 µM | TGI (MCF7 breast): > 100 µM | TGI (EKVX NSCLC): 85.2 µM | TGI (HOP-92 NSCLC): > 100 µM | TGI (HOP-62 NSCLC): > 100 µM | TGI (UACC-62 melanoma): > 100 µM | TGI (RXF 393 renal): > 100 µM | TGI (SNB-19 CNS): > 100 µM | TGI (TK-10 renal): > 100 µM | TGI (786-0 renal): 85.4 µM | TGI (OVCAR-3 ovarian): 69.5 µM | TGI (BT-549 breast): > 100 µM | TGI (OVCAR-8 ovarian): > 100 µM | TGI (SN12C renal): > 100 µM | TGI (IGROV1 ovarian): > 100 µM | TGI (OVCAR-4 ovarian): > 100 µM | TGI (T-47D breast): > 100 µM | TGI (MDA-N): > 100 µM | TGI (K-562 leukemia): > 100 µM | TGI (M14 melanoma): 56.5 µM | TGI (HCT-15 colon): > 100 µM | TGI (CAKI-1 renal): > 100 µM | TGI (UO-31 renal): > 100 µM | TGI (RPMI-8226 leukemia): > 100 µM | TGI (SF-539 CNS): > 100 µM | TGI (COLO 205 colon): > 100 µM | TGI (NCI/ADR-RES ovarian): > 100 µM | TGI (LOX IMVI melanoma): > 100 µM | TGI (SF-295 CNS): > 100 µM

CCOn1c(C2(CC3CCN(C(=O)c4ccccc4)CC3)OCCO2)cc2ccccc21
TGI (SNB-75 CNS): 34.6 µM | TGI (NCI-H23 lung): 40.6 µM | TGI (SW-620 colon): 35.7 µM | TGI (UACC-257 melanoma): 23 µM | TGI (MDA-MB-435): 27.4 µM | TGI (OVCAR-5 ovarian): 37.4 µM | TGI (A498 renal): 26.1 µM | TGI (U251 CNS): 29.9 µM | TGI (SK-MEL-28 melanoma): 27.7 µM | TGI (DU-145 prostate): 31.9 µM | TGI (SF-268 CNS): 35 µM | TGI (ACHN renal): 27.9 µM | TGI (SK-MEL-5 melanoma): 24.6 µM | TGI (NCI-H226 lung): 20.4 µM | TGI (SK-MEL-2 melanoma): 32.2 µM | TGI (MDA-MB-231 breast): 30 µM | TGI (PC-3 prostate): 26 µM | TGI (HCT-116 colon): 29.2 µM | TGI (MOLT-4 leukemia): 31.3 µM | TGI (HT29 colon): 34.2 µM | TGI (CCRF-CEM leukemia): 31.7 µM | TGI (NCI-H522 lung): 35 µM | TGI (A549 NSCLC): 32.4 µM | TGI (MALME-3M melanoma): 33.2 µM | TGI (KM12 colon): 30.9 µM | TGI (MCF7 breast): 30 µM | TGI (EKVX NSCLC): 40.1 µM | TGI (HOP-92 NSCLC): 23.5 µM | TGI (HOP-62 NSCLC): 28.3 µM | TGI (UACC-62 melanoma): 23.4 µM | TGI (RXF 393 renal): 31.2 µM | TGI (SNB-19 CNS): 30.9 µM | TGI (TK-10 renal): 24.7 µM | TGI (786-0 renal): 30 µM | TGI (NCI-H460 lung): 27.1 µM | TGI (OVCAR-3 ovarian): 30 µM | TGI (BT-549 breast): 34.5 µM | TGI (OVCAR-8 ovarian): 29.2 µM | TGI (SN12C renal): 30.9 µM | TGI (SR leukemia): 22.5 µM | TGI (IGROV1 ovarian): 31.7 µM | TGI (OVCAR-4 ovarian): 29.9 µM | TGI (T-47D breast): 56.2 µM | TGI (MDA-N): 30.1 µM | TGI (K-562 leukemia): 38.2 µM | TGI (SK-OV-3 ovarian): 45.3 µM | TGI (M14 melanoma): 33.6 µM | TGI (HCT-15 colon): 42.3 µM | TGI (CAKI-1 renal): 30.2 µM | TGI (UO-31 renal): 26.9 µM | TGI (RPMI-8226 leukemia): 28.1 µM | TGI (SF-539 CNS): 68.1 µM | TGI (COLO 205 colon): 36.3 µM | TGI (NCI/ADR-RES ovarian): 33.9 µM | TGI (LOX IMVI melanoma): 30.4 µM | TGI (SF-295 CNS): 30.5 µM

COC(=O)CC(NC(=O)OCc1ccccc1)C(=O)NC(CC(=O)OC)C(=O)NC(CC(=O)OC)C(=O)NC(CC(=O)OC)C(=O)NC(CC(=O)OC)C(=O)NC(CC(=O)OC)C(=O)NN (configuration not stated) (Cbz-D(OMe)D(OMe)D(OMe)D(OMe)D(OMe)D(OMe)-NHNH2; configuration not given here)
TGI (SNB-75 CNS): > 100 µM | TGI (SW-620 colon): > 100 µM | TGI (UACC-257 melanoma): > 100 µM | TGI (MDA-MB-435): > 100 µM | TGI (OVCAR-5 ovarian): > 100 µM | TGI (HS 578T breast): > 100 µM | TGI (U251 CNS): > 100 µM | TGI (SK-MEL-28 melanoma): > 100 µM | TGI (SF-268 CNS): > 100 µM | TGI (ACHN renal): > 100 µM | TGI (SK-MEL-5 melanoma): > 100 µM | TGI (HCC-2998 colon): > 100 µM | TGI (SK-MEL-2 melanoma): > 100 µM | TGI (MDA-MB-231 breast): > 100 µM | TGI (HL-60(TB) leukemia): > 100 µM | TGI (PC-3 prostate): > 100 µM | TGI (HCT-116 colon): > 100 µM | TGI (MOLT-4 leukemia): > 100 µM | TGI (HT29 colon): > 100 µM | TGI (CCRF-CEM leukemia): > 100 µM | TGI (KM12 colon): > 100 µM | TGI (MCF7 breast): > 100 µM | TGI (HOP-92 NSCLC): > 100 µM | TGI (HOP-62 NSCLC): > 100 µM | TGI (UACC-62 melanoma): > 100 µM | TGI (SNB-19 CNS): > 100 µM | TGI (TK-10 renal): > 100 µM | TGI (786-0 renal): > 100 µM | TGI (NCI-H460 lung): > 100 µM | TGI (BT-549 breast): > 100 µM | TGI (OVCAR-8 ovarian): > 100 µM | TGI (SN12C renal): > 100 µM | TGI (SR leukemia): > 100 µM | TGI (IGROV1 ovarian): > 100 µM | TGI (OVCAR-4 ovarian): > 100 µM | TGI (T-47D breast): > 100 µM | TGI (MDA-N): > 100 µM | TGI (K-562 leukemia): > 100 µM | TGI (SK-OV-3 ovarian): > 100 µM | TGI (M14 melanoma): > 100 µM | TGI (HCT-15 colon): > 100 µM | TGI (UO-31 renal): > 100 µM | TGI (RPMI-8226 leukemia): > 100 µM | TGI (SF-539 CNS): > 100 µM | TGI (COLO 205 colon): > 100 µM | TGI (LOX IMVI melanoma): > 100 µM | TGI (SF-295 CNS): > 100 µM
